Structures can show the parent of a compound that is named as a salt.
How the values were obtained:
[1] = tested on: guinea pigs (cough by mechanical airway stimulation); test: Antitussive effect by guinea pig airway stimulation method; assay type: in vivo, guinea pig (male Hartley); settings: for ED50: Cavia porcellus, sc, guinea pig airway stimulation; for Number of animals exhibiting coughing/number of animals tested: guinea pig, s.c.
Description: A group of five male Hartley guinea pigs (5 weeks old) with a body weight of 330-380 g were used. They were fixed in the supine position under light anesthesia by intraperitoneal administration of 15 mg/kg of pentobarbital sodium, and the necks were cut open to expose the airways. A small hole was opened in each exposed airway, from which stimulating hair was inserted about 3 cm into the airway at a 30° angle to stimulate the wall of the airway, and the occurrence or lack of coughing was noted. […] The test compounds were subcutaneously administered, and the stimulation was performed twice at each point 15, 30, 60 and 120 minutes after administration, pronouncing effective those cases in which no coughing occurred either time.

δ opioid receptor = molecular target: T1, δ opioid receptor (Mus musculus, UniProt P32300); test: Antagonism by the δ-antagonist NTI in extracted mouse vas deferens; assay type: cell-based; settings: Ke=[antagonist]/(IC50 ratio -1)
T1 construct: from tissue; host or cells: vas deferens of male ddy mice
T1 sequence (P32300 whole entry): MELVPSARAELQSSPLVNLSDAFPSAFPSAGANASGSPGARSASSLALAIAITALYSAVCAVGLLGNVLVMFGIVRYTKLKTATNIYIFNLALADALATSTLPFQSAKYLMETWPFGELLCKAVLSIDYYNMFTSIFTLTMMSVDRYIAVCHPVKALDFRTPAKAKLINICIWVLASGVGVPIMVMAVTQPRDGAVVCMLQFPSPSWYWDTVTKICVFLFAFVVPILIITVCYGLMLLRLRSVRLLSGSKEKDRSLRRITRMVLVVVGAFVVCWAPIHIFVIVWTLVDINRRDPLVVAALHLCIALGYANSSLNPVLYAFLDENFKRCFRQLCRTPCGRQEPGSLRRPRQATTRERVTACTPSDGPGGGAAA
Description: (§1) Male ddy mice were provided for experimentation. Vas deferens extracted from the mice were suspended in a Magnus tube filled with a 37° C.-heated Krebes-Henseleit solution ([…], 4.7 mM KCl, 2.5 mM CaCl2, 1.1 mM KH2 PO4, 25 mM NaHCO3, 11 mM glucose) and aerated with 5% carbon dioxide and 95% oxygen. A 0.1 Hz, 5.0 mS electrical stimulus was applied via an annular platinum electrode. The tissue contraction was recorded on a polygraph using an isometric transducer.
(§2) Then, the sample was adequately washed with a nutrient solution, and when the contraction reaction stabilized, the μ-antagonist naloxone, the δ-antagonist NTI or the κ-antagonist norBNI was added thereto, and after about 20 minutes the test compound was once again added cumulatively. The Ke value was calculated from the difference in potency between the two, according to the following equation. Ke=[concentration of added antagonist]/(IC50 ratio -1) IC50 ratio=IC50 value in presence of antagonist/IC50 value in absence of antagonist

κ-receptors = molecular target: T2, κ-receptors (Mus musculus, UniProt P33534); test: Antagonism by the κ-antagonist norBNI in extracted mouse vas deferens; assay type: cell-based; settings: Ke=[antagonist]/(IC50 ratio -1)
T2 construct: from tissue; host or cells: vas deferens of male ddy mice
T2 sequence (P33534 whole entry): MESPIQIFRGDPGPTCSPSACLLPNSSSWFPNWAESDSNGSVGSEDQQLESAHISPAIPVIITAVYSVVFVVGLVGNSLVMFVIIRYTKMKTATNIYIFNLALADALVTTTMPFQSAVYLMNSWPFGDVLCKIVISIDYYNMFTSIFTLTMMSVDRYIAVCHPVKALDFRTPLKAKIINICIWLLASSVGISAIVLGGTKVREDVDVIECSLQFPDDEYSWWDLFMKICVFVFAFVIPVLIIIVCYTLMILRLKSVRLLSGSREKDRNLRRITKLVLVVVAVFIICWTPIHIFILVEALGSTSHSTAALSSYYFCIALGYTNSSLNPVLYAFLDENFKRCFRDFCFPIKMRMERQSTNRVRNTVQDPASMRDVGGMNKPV
Description: as §1, §2

[2] = tested on: rats (capsaicin-induced cough); test: animal or person; assay type: in vivo; settings: Rattus norvegicus, ip, 0.5 h
mouse vas deferens = test: Opioid activity test using extracted mouse vas deferens sample (inhibition of electrically stimulated contraction); assay type: cell-based, mouse (male ddy)
Description: as §1, §2

μ-receptors = molecular target: T3, μ-receptors (Mus musculus, UniProt P42866); test: Antagonism by the μ-antagonist naloxone in extracted mouse vas deferens; assay type: cell-based; settings: Ke=[antagonist]/(IC50 ratio -1)
T3 construct: from tissue; host or cells: vas deferens of male ddy mice
T3 sequence (P42866 whole entry): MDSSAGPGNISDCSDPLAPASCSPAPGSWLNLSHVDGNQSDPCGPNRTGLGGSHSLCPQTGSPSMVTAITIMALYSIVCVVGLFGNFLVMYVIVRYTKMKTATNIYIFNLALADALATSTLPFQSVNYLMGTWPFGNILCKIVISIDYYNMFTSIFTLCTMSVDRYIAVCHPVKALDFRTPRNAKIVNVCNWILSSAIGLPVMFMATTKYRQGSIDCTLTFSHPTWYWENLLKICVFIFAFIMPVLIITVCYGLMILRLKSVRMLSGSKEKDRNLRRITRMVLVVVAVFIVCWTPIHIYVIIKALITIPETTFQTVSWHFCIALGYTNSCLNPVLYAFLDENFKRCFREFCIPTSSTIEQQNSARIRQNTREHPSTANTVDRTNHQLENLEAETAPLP
Description: as §1, §2

CN(C(=O)/C=C/c1cccc(C(F)(F)F)c1)[C@@H]1CC[C@@]2(O)[C@H]3Cc4ccc(O)c5c4[C@@]2(CCN3CC2CC2)[C@H]1O5 [Compound 4, 17-cyclopropylmethyl-4,5α-epoxy-3,14β-dihydroxy-6β-(N-methyl-3-trifluoromethylcinnamamido)morphinan.tartrate]
ED50 [1]: 2.6 µg/kg | Number of animals exhibiting coughing/number of animals tested ([1]; dosage 1 μg/kg): 1/5 | Number of animals exhibiting coughing/number of animals tested ([1]; dosage 3 μg/kg): 3/5 | Number of animals exhibiting coughing/number of animals tested ([1]; dosage 30 μg/kg): 5/5 | Ke NTI (δ opioid receptor): 291 nM | Ke norBNI (κ-receptors): 3.20 nM | ED50 [2]: 107 µg/kg | IC50 (mouse vas deferens): 468 pM

CN(C(=O)/C=C/c1ccoc1)[C@@H]1CC[C@@]2(O)[C@H]3Cc4ccc(O)c5c4[C@@]2(CCN3CC2CC2)[C@H]1O5 [Compound 5, 17-cyclopropylmethyl-4,5α-epoxy-3,14β-dihydroxy-6β-[N-methyl-trans-3-(3-furyl)acrylamido] morphinan.HCl]
ED50 [1]: 3.7 µg/kg | Number of animals exhibiting coughing/number of animals tested ([1]; dosage 1 μg/kg): 2/5 | Number of animals exhibiting coughing/number of animals tested ([1]; dosage 3 μg/kg): 3/5 | Number of animals exhibiting coughing/number of animals tested ([1]; dosage 30 μg/kg): 5/5 | Ke norBNI (κ-receptors): 0.164 nM | ED50 [2]: 4.3 µg/kg | IC50 (mouse vas deferens): 420 pM

Cc1cccc(/C=C/C(=O)N(C)[C@@H]2CC[C@@]3(O)[C@H]4Cc5ccc(O)c6c5[C@@]3(CCN4CC3CC3)[C@H]2O6)c1 [Compound 6, 17-cyclopropylmethyl-4,5α-epoxy-3,14β-dihydroxy-6β-(N-methyl-3-methylcinnamamido)morphinan.HCl]
ED50 [1]: 12.5 µg/kg | Number of animals exhibiting coughing/number of animals tested ([1]; dosage 1 μg/kg): 1/5 | Number of animals exhibiting coughing/number of animals tested ([1]; dosage 3 μg/kg): 1/5 | Number of animals exhibiting coughing/number of animals tested ([1]; dosage 30 μg/kg): 4/5 | Ke NTI (δ opioid receptor): 64.5 nM | Ke norBNI (κ-receptors): 1.95 nM | Ke Naloxone (μ-receptors): 1780 nM | IC50 (mouse vas deferens): 320 pM

CN(CCc1ccc(Cl)c(Cl)c1)[C@@H]1CC[C@@]2(O)[C@H]3Cc4ccc(O)c5c4[C@@]2(CCN3CC2CC2)[C@H]1O5 [Compound 7, 17-cyclopropylmethyl-4,5α-epoxy-3,14β-dihydroxy-6β-[N-methyl-N-2-(3,4-dichlorophenyl)ethylamino]morphinan.1.9 HCl]
ED50 [2]: 437 µg/kg

CN(C(=O)OCc1ccccc1)[C@@H]1CC[C@@]2(O)[C@H]3Cc4ccc(O)c5c4[C@@]2(CCN3CC2CC2)[C@H]1O5 [Compound 8, 17-cyclopropylmethyl-4,5α-epoxy-3,14β-dihydroxy-6β-(N-methyl-benzyloxycarbamido)morphinan.HCl]
Ke NTI (δ opioid receptor): 532 nM | Ke norBNI (κ-receptors): 1.00 nM | ED50 [2]: 1.79 µg/kg | IC50 (mouse vas deferens): 420 pM

O=C(CCc1ccccc1)O[C@H]1CC[C@@]2(O)[C@H]3Cc4ccc(O)c5c4[C@@]2(CCN3CC2CC2)[C@H]1O5 [Compound 9, 17-cyclopropylmethyl-4,5α-epoxy-3,14β-dihydroxy-6α-(3-phenylpropionyloxy)morphinan.tartrate]
ED50 [2]: 3300 µg/kg

CN(C(=O)/C=C/c1cccc(OC(F)(F)F)c1)[C@@H]1CC[C@@]2(O)[C@H]3Cc4ccc(O)c5c4[C@@]2(CCN3CC2CC2)[C@H]1O5 [Compound 10, 17-cyclopropylmethyl-4,5α-epoxy-3,14β-dihydroxy-6β-(N-methyl-3-trifluoromethoxycinnamamido)morphinan.tartrate]
Ke NTI (δ opioid receptor): 17.6 nM | Ke norBNI (κ-receptors): 0.17 nM | ED50 [2]: 2.1 µg/kg | Ke Naloxone (μ-receptors): 10.8 nM

Cc1cccc(C#CC(=O)N(C)[C@@H]2CC[C@@]3(O)[C@H]4Cc5ccc(O)c6c5[C@@]3(CCN4CC3CC3)[C@H]2O6)c1 [Compound 11, 17-cyclopropylmethyl-4,5α-epoxy-3,14β-dihydroxy-6β-[N-methyl-3-(3-methylphenyl)propiolamido]morphinan.HCl]
ED50 [2]: 13.5 µg/kg

COc1ccc2c3c1O[C@H]1[C@H](N(C)C(=O)/C=C/c4ccoc4)CC[C@@]4(O)[C@@H](C2)N(CC2CC2)CC[C@]314 [Compound 12, 17-cyclopropylmethyl-4,5α-epoxy-3-methoxy-14β-hydroxy-6β-[N-methyl-trans-3-(3-furyl)acrylamido]morphinan.HCl]
ED50 [2]: 0.12 µg/kg

COc1ccc2c3c1O[C@H]1[C@H](N(C)C(=O)C#Cc4cccc(C)c4)CC[C@@]4(O)[C@@H](C2)N(CC2CC2)CC[C@]314 [Compound 13, 17-cyclopropylmethyl-4,5α-epoxy-3-methoxy-14β-hydroxy-6β-[N-methyl-3-(3-methylphenyl)propiolamido]morphinan.HCl]
ED50 [2]: 12.1 µg/kg
